Measured values from US8541588B2, “Sulfonamide derivatives” (Pfizer Limited, priority 2009, dated 2013).

Each compound was assayed against T1, Nav1.7 (or SCN9A) channel; HEK cells stably transfected with hSCN9A (Homo sapiens, UniProt Q15858) (assay: Nav1.7 block, PatchXpress 7000 automated whole-cell voltage clamp, estimated IC50 (EIC50)). Details: estimated IC50; hSCN9A HEK cells, PatchXpress platform; Examples 283-814.
T1 construct: expressed in transfected cells
T1 sequence (Q15858 whole entry): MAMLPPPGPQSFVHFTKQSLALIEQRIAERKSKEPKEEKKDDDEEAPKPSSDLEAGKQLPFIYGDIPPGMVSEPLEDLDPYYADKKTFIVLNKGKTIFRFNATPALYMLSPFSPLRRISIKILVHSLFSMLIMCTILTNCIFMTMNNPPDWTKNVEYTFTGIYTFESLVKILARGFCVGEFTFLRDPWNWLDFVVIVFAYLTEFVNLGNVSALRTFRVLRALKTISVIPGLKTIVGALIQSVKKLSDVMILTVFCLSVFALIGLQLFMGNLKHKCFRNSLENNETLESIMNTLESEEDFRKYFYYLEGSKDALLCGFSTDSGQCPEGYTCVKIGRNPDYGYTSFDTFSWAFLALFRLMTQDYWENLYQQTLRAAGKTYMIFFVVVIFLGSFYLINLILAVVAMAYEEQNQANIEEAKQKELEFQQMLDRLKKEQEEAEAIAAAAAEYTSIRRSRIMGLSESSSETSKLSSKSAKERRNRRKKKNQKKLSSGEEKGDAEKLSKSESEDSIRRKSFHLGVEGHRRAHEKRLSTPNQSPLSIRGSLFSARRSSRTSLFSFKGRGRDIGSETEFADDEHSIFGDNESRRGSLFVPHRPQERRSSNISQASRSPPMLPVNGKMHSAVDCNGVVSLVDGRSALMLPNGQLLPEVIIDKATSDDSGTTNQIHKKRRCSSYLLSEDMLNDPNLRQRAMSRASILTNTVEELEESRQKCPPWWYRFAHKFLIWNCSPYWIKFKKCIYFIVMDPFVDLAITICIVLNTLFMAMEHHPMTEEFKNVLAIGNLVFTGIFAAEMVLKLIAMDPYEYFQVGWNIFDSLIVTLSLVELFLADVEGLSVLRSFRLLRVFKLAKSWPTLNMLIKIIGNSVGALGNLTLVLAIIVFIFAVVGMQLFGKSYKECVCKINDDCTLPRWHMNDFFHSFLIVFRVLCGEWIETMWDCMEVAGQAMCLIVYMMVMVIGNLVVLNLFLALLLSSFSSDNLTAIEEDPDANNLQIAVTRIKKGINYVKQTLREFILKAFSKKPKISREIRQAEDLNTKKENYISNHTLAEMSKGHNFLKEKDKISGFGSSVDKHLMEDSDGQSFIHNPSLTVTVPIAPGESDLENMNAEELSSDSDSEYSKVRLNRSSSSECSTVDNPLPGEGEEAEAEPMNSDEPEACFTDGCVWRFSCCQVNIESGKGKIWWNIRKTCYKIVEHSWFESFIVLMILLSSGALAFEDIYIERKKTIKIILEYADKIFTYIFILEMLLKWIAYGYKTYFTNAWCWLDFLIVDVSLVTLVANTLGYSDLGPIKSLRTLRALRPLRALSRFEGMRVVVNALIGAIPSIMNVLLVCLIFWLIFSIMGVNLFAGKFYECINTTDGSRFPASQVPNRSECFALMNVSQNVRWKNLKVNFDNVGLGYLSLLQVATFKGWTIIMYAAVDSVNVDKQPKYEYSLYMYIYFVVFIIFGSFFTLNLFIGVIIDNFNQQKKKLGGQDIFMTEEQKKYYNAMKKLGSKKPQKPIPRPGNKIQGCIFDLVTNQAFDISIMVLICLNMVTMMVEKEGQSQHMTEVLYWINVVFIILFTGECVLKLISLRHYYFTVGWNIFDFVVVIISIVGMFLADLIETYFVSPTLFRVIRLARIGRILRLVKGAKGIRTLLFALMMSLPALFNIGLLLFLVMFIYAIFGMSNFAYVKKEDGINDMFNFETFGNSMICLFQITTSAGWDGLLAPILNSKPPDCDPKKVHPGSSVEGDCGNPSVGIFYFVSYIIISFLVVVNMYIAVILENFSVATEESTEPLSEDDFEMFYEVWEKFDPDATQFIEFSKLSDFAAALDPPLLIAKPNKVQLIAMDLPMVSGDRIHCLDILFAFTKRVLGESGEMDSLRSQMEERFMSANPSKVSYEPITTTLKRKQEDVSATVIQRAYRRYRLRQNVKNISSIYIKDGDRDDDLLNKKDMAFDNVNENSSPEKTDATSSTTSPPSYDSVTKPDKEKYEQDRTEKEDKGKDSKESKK
Format: cell-based
For `Cc1nsc(NS(=O)(=O)c2cc(Cl)c(Oc3ccc(Cl)cc3-c3ccnn3C)cc2F)n1` [Example 294, 5-chloro-4-[4-chloro-2-(1-methyl-1H-pyrazol-5-yl)phenoxy]-2-fluoro-N-(3-methyl-1,2,4-thiadiazol-5-yl)benzenesulfonamide], the IC50 was 34 nM.
`Cn1nccc1-c1cc(F)ccc1Oc1cc(F)c(S(=O)(=O)Nc2ccncn2)cc1Cl` [Example 295, 5-chloro-2-fluoro-4-[4-fluoro-2-(1-methyl-1H-pyrazol-5-yl)phenoxy]-N-pyrimidin-4-ylbenzenesulfonamide] gave an IC50 of 130 nM.
For `Cn1nc(C(F)(F)F)cc1-c1ccc(Oc2cc(F)c(S(=O)(=O)Nc3nccs3)cc2Cl)c(C#N)c1` [Example 296, 5-chloro-4-{2-cyano-4-[1-methyl-3-(trifluoromethyl)-1H-pyrazol-5-yl]phenoxy}-2-fluoro-N-1,3-thiazol-2-ylbenzenesulfonamide], the IC50 was 25 nM.
Work on `Cn1nc(C(F)(F)F)cc1-c1ccc(Oc2cc(F)c(S(=O)(=O)Nc3nncs3)cc2Cl)c(C#N)c1` [Example 297, 5-chloro-4-{2-cyano-4-[1-methyl-3-(trifluoromethyl)-1H-pyrazol-5-yl]phenoxy}-2-fluoro-N-1,3,4-thiadiazol-2-ylbenzenesulfonamide] yielded an IC50 of 1000 nM.
With `Cn1nccc1-c1cc(F)ccc1Oc1cc(F)c(S(=O)(=O)Nc2nncs2)cc1Cl` [Example 298, 5-chloro-2-fluoro-4-[4-fluoro-2-(1-methyl-1H-pyrazol-5-yl)phenoxy]-N-1,3,4-thiadiazol-2-ylbenzenesulfonamide] the IC50 was 140 nM.
`O=S(=O)(Nc1nncs1)c1cc(Cl)c(Oc2ccc(Cl)cc2-c2ccn[nH]2)cc1F` [Example 300, 5-chloro-4-[4-chloro-2-(1H-pyrazol-5-yl)phenoxy]-2-fluoro-N-1,3,4-thiadiazol-2-ylbenzenesulfonamide] showed an IC50 of 39 nM.
Work on `Cn1nccc1-c1cc(Cl)ccc1Oc1cc(F)c(S(=O)(=O)Nc2nncs2)cc1F` [Example 301, 4-[4-chloro-2-(1-methyl-1H-pyrazol-5-yl)phenoxy]-2,5-difluoro-N-1,3,4-thiadiazol-2-ylbenzenesulfonamide] yielded an IC50 of 280 nM.
`O=S(=O)(Nc1nncs1)c1cc(F)c(Oc2ccc(Cl)cc2-c2ccn[nH]2)cc1F` [Example 302, 4-[4-chloro-2-(1H-pyrazol-5-yl)phenoxy]-2,5-difluoro-N-1,3,4-thiadiazol-2-ylbenzenesulfonamide] was tested, and the IC50 was 160 nM.
`CC(C)(C)n1nc(C(F)(F)F)cc1-c1ccc(Oc2ccc(S(=O)(=O)Nc3nccs3)c(F)c2)cc1` [Example 303, 4-{4-[1-tert-Butyl-3-(trifluoromethyl)-1H-pyrazol-5-yl]phenoxy}-2-fluoro-N-1,3-thiazol-2-ylbenzenesulfonamide] was tested, and the IC50 was 430 nM.
`Cn1nccc1-c1cc(Cl)ccc1Oc1cc(F)c(S(=O)(=O)Nc2nccs2)cc1Cl` [Example 304, 5-chloro-4-[4-chloro-2-(1-methyl-1H-pyrazol-5-yl)phenoxy]-2-fluoro-N-1,3-thiazol-2-ylbenzenesulfonamide] showed an IC50 of 25 nM.
In the case of `CCn1nc(C(F)(F)F)cc1-c1ccc(Oc2cc(F)c(S(=O)(=O)Nc3nccs3)cc2Cl)cc1` [Example 305, 5-chloro-4-{4-[1-ethyl-3-(trifluoromethyl)-1H-pyrazol-5-yl]phenoxy}-2-fluoro-N-1,3-thiazol-2-ylbenzenesulfonamide], the IC50 is reported as 97 nM.
With `Cn1cnnc1-c1cc(Cl)ccc1Oc1ccc(S(=O)(=O)Nc2nccs2)cc1F` [Example 306, 4-[4-chloro-2-(4-methyl-4H-1,2,4-triazol-3-yl)phenoxy]-3-fluoro-N-1,3-thiazol-2-ylbenzenesulfonamide] the IC50 was >1000 nM.
`Cn1ncc(F)c1-c1cc(Cl)ccc1Oc1ccc(S(=O)(=O)Nc2nccs2)cc1F` [Example 307, 4-[4-Chloro-2-(4-fluoro-1-methyl-1H-pyrazol-5-yl)phenoxy]-3-fluoro-N-1,3-thiazol-2-ylbenzenesulfonamide] gave an IC50 of 810 nM.
Work on `O=S(=O)(Nc1nccs1)c1ccc(Oc2ccc(Cl)cc2-c2ccn[nH]2)c(F)c1` [Example 308, 4-[4-Chloro-2-(1H-pyrazol-5-yl)phenoxy]-3-fluoro-N-1,3-thiazol-2-ylbenzenesulfonamide] yielded an IC50 of 980 nM.
Work on `Cn1nccc1-c1cc(C2CC2)ccc1Oc1ccc(S(=O)(=O)Nc2nccs2)cc1F` [Example 309, 4-[4-Cyclopropyl-2-(1-methyl-1H-pyrazol-5-yl)phenoxy]-3-fluoro-N-1,3-thiazol-2-ylbenzenesulfonamide] yielded an IC50 of 25 nM.
With `CC(C)Oc1cc(-c2cc(F)ccc2Oc2ccc(S(=O)(=O)Nc3nccs3)cc2C#N)n(C)n1` [Example 310, 3-cyano-4-[4-fluoro-2-(3-isopropoxy-1-methyl-1H-pyrazol-5-yl)phenoxy]-N-1,3-thiazol-2-ylbenzenesulfonamide] the IC50 was >1000 nM.
Compound `CCn1nc(C(F)(F)F)cc1-c1ccc(Oc2ccc(S(=O)(=O)Nc3ncc(F)cc3F)cc2C#N)cc1` [Example 311, 3-cyano-N-(3,5-difluoropyridin-2-yl)-4-{4-[1-ethyl-3-(trifluoromethyl)-1H-pyrazol-5-yl]phenoxy}benzenesulfonamide] has an IC50 of 4900 nM.
For `Cn1nccc1-c1cc(I)ccc1Oc1ccc(S(=O)(=O)Nc2nccs2)cc1C#N` [Example 312, 3-cyano-4-[4-iodo-2-(1-methyl-1H-pyrazol-5-yl)phenoxy]-N-1,3-thiazol-2-ylbenzenesulfonamide], the IC50 was 17 nM.
In the case of `N#Cc1cc(S(=O)(=O)Nc2ccc(F)cn2)ccc1Oc1ccc(Cl)cc1-c1cn[nH]c1` [Example 314, 4-[4-chloro-2-(1H-pyrazol-4-yl)phenoxy]-3-cyano-N-(5-fluoropyridin-2-yl)benzenesulfonamide], the IC50 is reported as 730 nM.
`N#Cc1cc(S(=O)(=O)Nc2ccc(F)cn2)ccc1Oc1ccc(C(F)(F)F)cc1-c1cn[nH]c1` [Example 315, 3-cyano-N-(5-fluoropyridin-2-yl)-4-[2-(1H-pyrazol-4-yl)-4-(trifluoromethyl)phenoxy]benzenesulfonamide] was tested, and the IC50 was 1200 nM.
`CCn1cc(C(F)(F)F)nc1-c1ccc(Oc2ccc(S(=O)(=O)Nc3nccs3)cc2C#N)cc1` [Example 316, 3-cyano-4-{4-[1-ethyl-4-(trifluoromethyl)-1H-imidazol-2-yl]phenoxy}-N-1,3-thiazol-2-ylbenzenesulfonamide] showed an IC50 of 740 nM.
`Cc1coc(-c2ccc(Oc3ccc(S(=O)(=O)Nc4nccs4)cc3C#N)cc2)n1` [Example 317, 3-cyano-4-[4-(4-methyl-1,3-oxazol-2-yl)phenoxy]-N-1,3-thiazol-2-ylbenzenesulfonamide] was tested, and the IC50 was 2200 nM.
Work on `Cc1coc(-c2cc(Cl)ccc2Oc2ccc(S(=O)(=O)Nc3nccs3)cc2C#N)n1` [Example 318, 4-[4-chloro-2-(4-methyl-1,3-oxazol-2-yl)phenoxy]-3-cyano-N-1,3-thiazol-2-ylbenzenesulfonamide] yielded an IC50 of 1300 nM.
In the case of `N#Cc1cc(S(=O)(=O)Nc2nccs2)ccc1Oc1cccc(-n2cccn2)c1` [Example 319, 3-cyano-4-[3-(1H-pyrazol-1-yl)phenoxy]-N-1,3-thiazol-2-ylbenzenesulfonamide], the IC50 is reported as 2500 nM.
In the case of `Cn1cc(C(F)(F)F)nc1-c1ccc(Oc2ccc(S(=O)(=O)Nc3nccs3)cc2C#N)cc1` [Example 320, 3-cyano-4-{4-[1-methyl-4-(trifluoromethyl)-1H-imidazol-2-yl]phenoxy}-N-1,3-thiazol-2-ylbenzenesulfonamide], the IC50 is reported as 3300 nM.
For `N#Cc1cc(S(=O)(=O)Nc2nccs2)ccc1Oc1ccc(Cl)cc1-n1nccn1` [Example 321, 4-[4-chloro-2-(2H-1,2,3-triazol-2-yl)phenoxy]-3-cyano-N-1,3-thiazol-2-ylbenzenesulfonamide], the IC50 was 770 nM.
Work on `N#Cc1cc(S(=O)(=O)Nc2nccs2)ccc1Oc1ccc(Cl)cc1-n1ccnn1` [Example 322, 4-[4-chloro-2-(1H-1,2,3-triazol-1-yl)phenoxy]-3-cyano-N-1,3-thiazol-2-ylbenzenesulfonamide] yielded an IC50 of 550 nM.
For `CCOCn1nncc1-c1cc(Cl)ccc1Oc1ccc(S(=O)(=O)Nc2nccs2)cc1C#N` [Example 323, 4-{4-chloro-2-[1-(ethoxymethyl)-1H-1,2,3-triazol-5-yl]phenoxy}-3-cyano-N-1,3-thiazol-2-ylbenzenesulfonamide], the IC50 was >300 nM.
With `CCn1nc(-c2ccc(Oc3ccc(S(=O)(=O)Nc4nccs4)cc3C#N)c(F)c2)cc1C(F)(F)F` [Example 324, 3-cyano-4-{4-[1-ethyl-5-(trifluoromethyl)-1H-pyrazol-3-yl]-2-fluorophenoxy}-N-1,3-thiazol-2-ylbenzenesulfonamide] the IC50 was >1000 nM.
With `Cn1cnc(-c2cc(Cl)ccc2Oc2ccc(S(=O)(=O)Nc3nccs3)cc2C#N)n1` [Example 325, 4-[4-chloro-2-(1-methyl-1H-1,2,4-triazol-3-yl)phenoxy]-3-cyano-N-1,3-thiazol-2-ylbenzenesulfonamide] the IC50 was >300 nM.
With `Cn1ncnc1-c1cc(Cl)ccc1Oc1ccc(S(=O)(=O)Nc2nccs2)cc1C#N` [Example 326, 4-[4-chloro-2-(1-methyl-1H-1,2,4-triazol-5-yl)phenoxy]-3-cyano-N-1,3-thiazol-2-ylbenzenesulfonamide] the IC50 was 2100 nM.
`CCn1nc(C(F)(F)F)cc1-c1ccc(Oc2ccc(S(=O)(=O)Nc3nccs3)cc2C#N)cc1F` [Example 327, 3-cyano-4-{4-[1-ethyl-3-(trifluoromethyl)-1H-pyrazol-5-yl]-3-fluorophenoxy}-N-1,3-thiazol-2-ylbenzenesulfonamide] gave an IC50 of 370 nM.
`CCn1nc(C(F)(F)F)cc1-c1ccc(Oc2ccc(S(=O)(=O)Nc3nccs3)cc2C#N)c(F)c1` [Example 328, 3-cyano-4-{4-[1-ethyl-3-(trifluoromethyl)-1H-pyrazol-5-yl]-2-fluorophenoxy}-N-1,3-thiazol-2-ylbenzenesulfonamide] gave an IC50 of 81 nM.
`Cn1nc(C(F)(F)F)cc1-c1ccc(Oc2ccc(S(=O)(=O)Nc3nccs3)cc2C#N)cc1F` [Example 329, 3-cyano-4-{3-fluoro-4-[1-methyl-3-(trifluoromethyl)-1H-pyrazol-5-yl]phenoxy}-N-1,3-thiazol-2-ylbenzenesulfonamide] showed an IC50 of 340 nM.
For `Cn1nc(C(F)(F)F)cc1-c1ccc(Oc2ccc(S(=O)(=O)Nc3nccs3)cc2C#N)c(F)c1` [Example 330, 3-cyano-4-{2-fluoro-4-[1-methyl-3-(trifluoromethyl)-1H-pyrazol-5-yl]phenoxy}-N-1,3-thiazol-2-ylbenzenesulfonamide], the IC50 was 250 nM.
